Conditions: for log10 BCF / log10 biotransformation half-life (days): fish

SMILES	boiling point [°C]	melting point [°C]	other results
C#CCBr	89		log10 Henry constant (atm·m³/mol): -2.95
Cc1ccc(C(C)C)cc1	177	-68.5	log10 vapour pressure (mmHg): 0.19; ready biodegradability: readily biodegradable
CCCCC(CC)CCC (centres undefined)	164		
C/C(=C(\CCOC(=O)c1ccccc1)SS/C(CCOC(=O)c1ccccc1)=C(/C)N(C=O)Cc1cnc(C)nc1N)N(C=O)Cc1cnc(C)nc1N		146	
Cc1cccc(I)c1O		15.5	
O=C(O)c1c(Br)cccc1Br		150	
Cc1cccc2sc3nncn3c12	275	187	log10 Koc (L/kg): 3.09; log10 vapour pressure (mmHg): -6.7
c1cc[nH]c1	130	-23.4	log10 Henry constant (atm·m³/mol): -4.74; log10 vapour pressure (mmHg): 0.922; ready biodegradability: readily biodegradable
CCc1ccc(Br)cc1	204	-43.5	log10 vapour pressure (mmHg): -0.155
CCCCCCCCCCCCCC(=O)N(CCO)CCO			ready biodegradability: readily biodegradable
CN(C)C(=O)Oc1cccc([N+](C)(C)C)c1.COS(=O)(=O)[O-]		143	
CC=C1CCCCC1	136		
CCCCCCC(=O)OCCCC	226	-67.5	
O=[N+]([O-])Nc1ccccc1		47.3	
ClC(Cl)=C(c1ccc(Cl)cc1)c1ccccc1Cl			log10 Koc (L/kg): 5.49; log10 vapour pressure (mmHg): -5.21
COc1ccc(O)c(C=O)c1	248	4	
CC(C)(C)CC(C)(C)c1ccc(O)c(Cc2ccc(Cl)cc2Cl)c1		78	
COP(=O)(OC)O/C(C)=C/C(=O)OC(C)c1ccccc1 (centres undefined)			log10 Koc (L/kg): 2; log10 vapour pressure (mmHg): -4.85
FC(F)(I)C(F)(F)I	112		
O=C(OCCOc1ccc(Cl)cc1Cl)c1ccccc1		66	
CC[C@@]12CCCN(CCc3c([nH]c4ccccc34)CC1)C2		146	
N#Cc1c[nH]c2ccccc12		180	
CCCCNC(=O)NS(=O)(=O)c1ccc(N)cc1		144	
O=C(Cc1ccccc1)Cc1ccccc1	331	35	log10 vapour pressure (mmHg): -3.13

SMILES	boiling point [°C]	melting point [°C]	other results
O=C(O)Cc1cccc(Br)c1		101	
Cc1ccc(Cl)cc1C	194	-6	
CCCC(C)N (centres undefined)	92		
Cc1cc(C)cc(OP(=O)(Oc2cc(C)cc(C)c2)Oc2cc(C)cc(C)c2)c1			ready biodegradability: not readily biodegradable
CCc1nc(C)cnc1C	180		
CCC(=O)Nc1cc(N(CCOC(C)=O)CCOC(C)=O)ccc1N=Nc1ccc([N+](=O)[O-])cc1Cl			ready biodegradability: not readily biodegradable
Cc1cc(O)c(Cl)cc1Cl	234	73	
CCc1ccc(O)cc1O		98.5	
Cc1ccccc1N=C=O	185		
c1ccc2cc(Nc3ccc(Nc4ccc5ccccc5c4)cc3)ccc2c1		235	
CC(=O)c1ccc(Cl)c(Cl)c1		76	
O=C(O)c1ccccc1-c1ccc(C(F)(F)F)cc1		170	
NNS(=O)(=O)c1ccc(Oc2ccc(S(=O)(=O)NN)cc2)cc1			ready biodegradability: not readily biodegradable
Cc1ccc2c(C)cccc2c1	264	-16.9	log10 vapour pressure (mmHg): -1.84
CC(C)N(Cc1ccccc1)C(=O)C(C)(C)C			log10 vapour pressure (mmHg): -3.18
C=C(C)C(=O)OCC	117		log10 vapour pressure (mmHg): 1.31
COc1ccc2cc3[n+](cc2c1OC)CCc1cc2c(cc1-3)OCO2		145	
C#CCC1CCCCC1	158		
CC(=O)OCOc1ccccc1C(N)=O		92.5	
C=CCCBr	98.5		
CS(C)=O	189	18.5	log10 Henry constant (atm·m³/mol): -8.82; log10 Koa: 4.96; log10 vapour pressure (mmHg): -0.215; ready biodegradability: not readily biodegradable; log10 BCF: 0.6
CCCCCCC=CCC(=O)O		18	
O=C(c1ccccc1)c1ccc(-c2ccccc2)cc1	420	100	
O=C(O)c1ccccc1-c1ccccc1C(=O)O		234	ready biodegradability: readily biodegradable

SMILES	boiling point [°C]	melting point [°C]	other results
Cc1cccc(I)c1	213	-27.2	
COC(=O)C1(S(=O)(=O)c2ccc(Cl)cc2)CC1		116	
OCCCCCCCCCCCl		12.5	
CCOc1ccc2ccccc2c1	282	37.5	
CCCCc1ccc(C(=O)O)cc1		106	
O=C(c1ccccc1)C(F)(F)F	153	-40	
Oc1ccc2c(c1)CCC2	253	58	log10 Koc (L/kg): 3.4
Cc1cccc(C)c1OCC(C)N (centres undefined)		204	
Clc1ccc(Cn2c(CN3CCCC3)nc3ccccc32)cc1		167	
CC(C)(O)C(=O)O	212	82.5	log10 vapour pressure (mmHg): -2.06
CCC(=O)c1cccc(OC)c1	259		
CCOC(=O)C=Cc1ccccc1	271	7	log10 vapour pressure (mmHg): -2.49
CCB(O)O		40	
Fc1ccc2ccccc2c1	212	61	
Clc1cc(Cl)c(-c2ccc(Cl)c(Cl)c2Cl)cc1Cl			log10 Henry constant (atm·m³/mol): -4.68; log10 Koa: 9.8; log10 Koc (L/kg): 5.93; log10 vapour pressure (mmHg): -5.42; log10 biotransformation half-life (days): 2.59
C1=CCC(c2ccncc2)CC1 (centres undefined)	226	22.1	
C[C@H](Oc1ccc(Oc2nc3ccc(Cl)cc3o2)cc1)C(=O)O		158	
C1CNCCNC1	169	43.5	
CN(C1CCCCC1)C1CCCCC1	265		
c1ccc2cc3c(ccc4c5ccccc5ccc34)cc2c1			log10 biotransformation half-life (days): 0.58
CC[Si](Cl)(Cl)Cl	100	-106	log10 vapour pressure (mmHg): 1.67
CCCC(=O)Nc1ccc(O)cc1		140	
CCC#N	97.1	-92.8	log10 Henry constant (atm·m³/mol): -4.43; log10 Koa: 2.69; log10 vapour pressure (mmHg): 1.68
CCCCCCCCCCCCCCOC(=O)CCCCCCCCCCCCC			ready biodegradability: readily biodegradable

SMILES	boiling point [°C]	melting point [°C]	other results
CN(C)C=O	153	-60.4	log10 Henry constant (atm·m³/mol): -7.13; log10 Koa: 4.38; log10 vapour pressure (mmHg): 0.588; ready biodegradability: readily biodegradable; log10 BCF: -0.1
ClC(Br)(Br)Br	158	55	
O=C1OC(=O)c2c(F)c(F)c(F)c(F)c21		95	
C[C@H]1CC[C@@H]2C[C@H]1C2(C)C		-53	
Oc1ccc2c3c1O[C@H]1[C@@H](O)C=C[C@H]4[C@H](C2)NCC[C@@]341		273	
C1OCOCO1	114	60.2	log10 vapour pressure (mmHg): 1.24
COC(=O)CCC(=O)OC	196	19	log10 vapour pressure (mmHg): -0.387; ready biodegradability: readily biodegradable
Cc1csc(C)n1	146		log10 vapour pressure (mmHg): 0.706
CCCCCCCCCCCC(=O)c1ccccc1		47	
CCOS(=O)(=O)C(F)(F)F	115		
O=[N+]([O-])c1ccc(Cl)cc1C(F)(F)F			ready biodegradability: not readily biodegradable; log10 BCF: 1.87; log10 biotransformation half-life (days): -0.36
O=C1NCCN1c1ncc([N+](=O)[O-])s1		261	
C[Si](C)(C)O[Si](C)(C)O[Si](C)(C)O[Si](C)(C)O[Si](C)(C)O[Si](C)(C)O[Si](C)(C)O[Si](C)(C)O[Si](C)(C)C	308		
Cc1cccc(OCC(O)CNC(C)C)c1 (centres undefined)		76	
Cn1nc2ccc(NC(=O)c3ccccc3)cc2n1		166	
CCS(=O)CC		14	
CCCCCCCCCC(=O)O	269	31.9	log10 vapour pressure (mmHg): -3.44; ready biodegradability: readily biodegradable
FC(Br)C(F)(F)Br (centres undefined)	76		
OCCOc1ccccc1	245	14	log10 vapour pressure (mmHg): -2.15
CC(C)=C(C)C(C)C	116	-113	log10 vapour pressure (mmHg): 1.35
Cc1ccc(N=Nc2ccccc2)cc1	312	71.5	
[C-]#[N+]c1ccccc1			log10 vapour pressure (mmHg): 0.381
OCc1cccc(F)c1	201		
CCO[Si](OCC)(OCC)OCC	169	-82.5	log10 vapour pressure (mmHg): 0.275

SMILES	boiling point [°C]	melting point [°C]	other results
CCCCc1cccc2[nH]nnc12			log10 Koc (L/kg): 2.16
CSc1ncnc2c1ncn2[C@@H]1O[C@H](CO)[C@@H](O)[C@H]1O		164	
CC(CCC(=O)O)(c1ccc(O)cc1)c1ccc(O)cc1		172	
CCC(=O)CCl	138		
CC(=O)OCC1=C(C(=O)O)N2C(=O)[C@@H](NC(=O)Cc3cccs3)[C@H]2SC1		160	
CCCCCCCOC(=O)CC	210	-50.9	
O=[N+]([O-])c1c(Cl)c(Cl)c(Cl)c(Cl)c1Cl	328	144	log10 Koc (L/kg): 3.98; log10 vapour pressure (mmHg): -4.3; ready biodegradability: not readily biodegradable; log10 BCF: 2.74; log10 biotransformation half-life (days): -0.17
Clc1cccc(-c2cc(Cl)c(Cl)c(Cl)c2Cl)c1Cl			log10 Henry constant (atm·m³/mol): -4.54
CCCCCCCCO	195	-15.5	log10 Henry constant (atm·m³/mol): -4.61; log10 Koa: 6.03; log10 Koc (L/kg): 1.56; log10 vapour pressure (mmHg): -1.1; ready biodegradability: readily biodegradable
Cc1cc2ccccc2n1C		56.5	
C[C@]12CC[C@@H]3c4ccc(OC(=O)N(CCCl)CCCl)cc4CC[C@H]3[C@@H]1CC[C@@H]2O		104	
CC(C)=CCCl	109		
Cc1c(COC(=O)[C@@H]2[C@H](/C=C(\Cl)C(F)(F)F)C2(C)C)cccc1-c1ccccc1 (racemic)		69	log10 Koc (L/kg): 5.35; log10 vapour pressure (mmHg): -6.74
CCOP(=S)(OCC)SC1OCCOC1SP(=S)(OCC)OCC (centres undefined)		-20	
O=C(O)C(O)C(Cl)(Cl)Cl (centres undefined)		125	
CN1C2CCC1CC(OC(=O)c1ccccc1)C2 (centres undefined)		49	
CCCCCCCCCCC(C)=O	246	21	log10 vapour pressure (mmHg): -1.69
CCCCCCCCCc1ccc(OP(=O)(Oc2ccccc2)Oc2ccccc2)cc1	471		log10 Henry constant (atm·m³/mol): -7.85; log10 Koc (L/kg): 4.06
Clc1ccc(Cl)c(Cl)c1Cl	254	47.5	log10 Henry constant (atm·m³/mol): -3.12; log10 Koa: 5.64; log10 Koc (L/kg): 3.84; log10 vapour pressure (mmHg): -1.41; ready biodegradability: not readily biodegradable; log10 BCF: 3.38; log10 biotransformation half-life (days): 0.69
Clc1cccc2c1Oc1c(Cl)c(Cl)c(Cl)c(Cl)c1O2		220	log10 vapour pressure (mmHg): -9.25
COC(=O)[C@@H]1CCCN1C(=O)COC(=O)c1ccccc1		72.5	
C=Cc1ccccc1CC	187	-75.5	ready biodegradability: not readily biodegradable
BrC1c2ccccc2-c2ccccc21		104	
O=C(Oc1ccc2ccccc2c1)c1ccccc1		107	

Source: the OPERA property sets (Mansouri et al. 2018)
